Target: T1, recombinant human SAE enzyme (Homo sapiens, UniProt Q9UBT2)
T1 sequence (Q9UBT2 1-640): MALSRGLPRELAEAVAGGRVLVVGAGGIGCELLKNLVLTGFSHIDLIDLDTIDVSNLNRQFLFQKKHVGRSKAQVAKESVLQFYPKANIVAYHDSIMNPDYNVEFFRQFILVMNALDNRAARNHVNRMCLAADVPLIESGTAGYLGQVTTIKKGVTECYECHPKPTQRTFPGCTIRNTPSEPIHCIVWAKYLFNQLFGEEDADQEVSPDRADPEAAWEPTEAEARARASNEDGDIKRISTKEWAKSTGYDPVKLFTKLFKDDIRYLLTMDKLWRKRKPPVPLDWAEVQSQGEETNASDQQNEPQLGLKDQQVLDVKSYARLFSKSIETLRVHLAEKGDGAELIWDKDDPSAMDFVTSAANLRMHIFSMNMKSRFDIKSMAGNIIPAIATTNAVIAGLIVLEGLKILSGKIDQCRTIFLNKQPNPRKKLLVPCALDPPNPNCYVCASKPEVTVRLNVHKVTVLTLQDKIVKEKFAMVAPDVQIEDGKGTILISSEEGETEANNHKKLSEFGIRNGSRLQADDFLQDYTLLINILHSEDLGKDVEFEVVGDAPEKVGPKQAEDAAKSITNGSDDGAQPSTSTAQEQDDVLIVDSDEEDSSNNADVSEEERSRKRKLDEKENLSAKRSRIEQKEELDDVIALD
T1 sequence (Q9UBE0 1-346 partner): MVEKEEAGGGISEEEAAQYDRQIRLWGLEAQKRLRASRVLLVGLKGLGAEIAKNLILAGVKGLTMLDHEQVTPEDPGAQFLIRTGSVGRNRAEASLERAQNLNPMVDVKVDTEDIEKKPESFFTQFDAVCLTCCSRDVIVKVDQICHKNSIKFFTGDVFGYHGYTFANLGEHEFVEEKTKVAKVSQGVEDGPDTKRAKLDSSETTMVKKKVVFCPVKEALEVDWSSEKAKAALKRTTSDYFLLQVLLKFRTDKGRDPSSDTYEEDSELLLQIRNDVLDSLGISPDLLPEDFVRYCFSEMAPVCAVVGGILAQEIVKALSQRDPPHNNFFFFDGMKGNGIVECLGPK
Test: SAE HTRF Enzyme Assay
Format: biochemical
Details: for IC50: class symbols A-C; for inhibition at 0.111 µM: compound concentration 0.111 μM, read-out: Percent Inhibition
Protocol: The SAE enzymatic reaction totals 50 μl and contains 50 mM HEPES Hemisodium (pH 7.5), 0.05% BSA, 5 mM MgCl2, 0.5 μM ATP, 250 μM GSH, 0.01 μM Ubc9-GST, 0.125 μM Sumo-Flag and 0.11 nM recombinant human SAE enzyme. The enzymatic reaction mixture with and without inhibitor, Is incubated at 24° C. for 105 min in a 384-well plate before termination with […] of Stop/Detection buffer (0.1M HEPES Hemisodium pH 7.5, 0.05% Tween20, 20 mM EDTA, 410 mM KF, 0.53 nM Europium-Cryptate labeled monoclonal anti-Flag M2 Antibody (CisBio International) and 8.125 μg/ml PHYCOLINK goat anti-GST allophycocyanin (XL-APC) antibody (Prozyme)). After incubation for 2 hours at 24° C., quantification of FRET is performed on the Pherostar™ (BMG Labtech). Percentage inhibition values at a single concentration or enzyme inhibition (IC50) values are determined from those curves. One skilled in the art will appreciate that the values generated either as percentage inhibition at a single concentration or IC50 values are subject to experimental variation.

Row | SMILES | IC50 | inhibition at 0.111 µM
1 | CCC(c1cccc(Br)c1)n1ccc(C(=O)c2cncnc2N[C@@H]2C[C@H](COS(N)(=O)=O)[C@@H](O)[C@@H]2F)c1 (single isomer, unassigned) [Compound I-175, [(1R,2R,3R,4R)-4-{[5-({1-[(1S)-1-(3-bromophenyl)propyl]-1H-pyrrol-3-yl}carbonyl)pyrimidin-4-yl]amino}-3-fluoro-2-hydroxycyclopentyl]methyl sulfamate or [(1R,2R,3R,4R)-4-{[5-({1-[(1R)-1-(3-bromophenyl)propyl]-1H-pyrrol-3-yl}carbonyl)pyrimidin-4-yl]amino}-3-fluoro-2-hydroxycyclopentyl]methyl sulfamate] | < 10 nM | 99%
2 | N#Cc1ccccc1Cn1ccc(C(=O)c2cncnc2N[C@@H]2C[C@H](COS(N)(=O)=O)[C@@H](O)[C@H]2O)n1 [Compound I-249, {(1R,2R,3S,4R)-4-[(5-{[1-(2-cyanobenzyl)-1H-pyrazol-3-yl]carbonyl}pyrimidin-4-yl)amino]-2,3-dihydroxycyclopentyl}methyl sulfamate] | < 10 nM | 97%
3 | NS(=O)(=O)OC[C@H]1C[C@@H](Nc2ncncc2C(=O)c2ccn(Cc3ccccc3C(F)(F)F)n2)C[C@@H]1O [Compound I-226, [(1R,2S,4R)-2-hydroxy-4-{[5-({1-[2-(trifluoromethyl)benzyl]-1H-pyrazol-3-yl}carbonyl)pyrimidin-4-yl]amino}cyclopentyl]methyl sulfamate] | 10 to 100 nM | 85%
4 | COc1cccc(Cn2ccc(C(=O)c3cncnc3N[C@@H]3C[C@H](COS(N)(=O)=O)[C@@H](O)C3)n2)n1 [Compound I-295, [(1R,2S,4R)-2-hydroxy-4-{[5-({1-[(6-methoxypyridin-2-yl)methyl]-1H-pyrazol-3-yl}carbonyl)pyrimidin-4-yl]amino}cyclopentyl]methyl sulfamate] | < 10 nM | 96%
5 | NS(=O)(=O)OC[C@H]1C[C@@H](Nc2ncncc2C(=O)c2ccn(Cc3cccc(C(F)(F)F)c3)n2)[C@@H](F)[C@@H]1O [Compound I-102, [(1R,2R,3R,4R)-3-fluoro-2-hydroxy-4-{[5-({1-[3-(trifluoromethyl)benzyl]-1H-pyrazol-3-yl}carbonyl)pyrimidin-4-yl]amino}cyclopentyl]methyl sulfamate] | < 10 nM | 97%
6 | NS(=O)(=O)OC[C@H]1C[C@@H](Nc2ncncc2C(=O)c2ccn(Cc3ccc4nccn4c3)n2)C[C@@H]1O [Compound I-144, {(1R,2S,4R)-2-hydroxy-4-[(5-{[1-(imidazo[1,2-a]pyridin-6-ylmethyl)-1H-pyrazol-3-yl]carbonyl}pyrimidin-4-yl)amino]cyclopentyl}methyl sulfamate] | < 10 nM | 97%
7 | CC(C)(O)c1cccc(Cn2ccc(C(=O)c3cncnc3N[C@@H]3C[C@H](COS(N)(=O)=O)[C@@H](O)C3)n2)c1 [Compound I-60, [(1R,2S,4R)-2-hydroxy-4-{[5-({1-[3-(2-hydroxypropan-2-yl)benzyl]-1H-pyrazol-3-yl}carbonyl)pyrimidin-4-yl]amino}cyclopentyl]methyl sulfamate] | 10 to 100 nM | 91%
8 | C#Cc1cccc([C@@H](C)n2ccc(C(=O)c3cncnc3N[C@@H]3C[C@H](COS(N)(=O)=O)[C@@H](O)C3)n2)c1 (single isomer, unassigned) [Compound I-10] | 10 to 100 nM | 61%
9 | NS(=O)(=O)OC[C@H]1C[C@@H](Nc2ncncc2C(=O)c2ccn(Cc3cc(F)c(F)c(F)c3)n2)[C@H](O)[C@@H]1O [Compound I-326, {(1R,2R,3S,4R)-2,3-dihydroxy-4-[(5-{[1-(3,4,5-trifluorobenzyl)-1H-pyrazol-3-yl]carbonyl}pyrimidin-4-yl)amino]cyclopentyl}methyl sulfamate] | < 10 nM | 95%
10 | COCc1cc(C(=O)c2cncnc2N[C@@H]2C[C@H](COS(N)(=O)=O)[C@@H](O)C2)nn1Cc1cccc(Br)c1 [Compound I-368, {(1R,2S,4R)-4-[(5-{[1-(3-bromobenzyl)-5-(methoxymethyl)-1H-pyrazol-3-yl]carbonyl}pyrimidin-4-yl)amino]-2-hydroxycyclopentyl}methyl sulfamate] | < 10 nM | 98%
11 | NS(=O)(=O)OC[C@H]1C[C@@H](Nc2ncncc2C(=O)c2ccn(Cc3cc(C(F)(F)F)ccc3Cl)n2)[C@@H](F)[C@@H]1O [Compound I-181, [(1R,2R,3R,4R)-4-{[5-({1-[2-chloro-5-(trifluoromethyl)benzyl]-1H-pyrazol-3-yl}carbonyl)pyrimidin-4-yl]amino}-3-fluoro-2-hydroxycyclopentyl]methyl sulfamate] | < 10 nM | 94%
12 | NS(=O)(=O)OC[C@H]1C[C@@H](Nc2ncncc2C(=O)c2ccn(Cc3csc4ccc(Cl)cc34)n2)[C@H](O)[C@@H]1O [Compound I-285, [(1R,2R,3S,4R)-4-{[5-({1-[(5-chloro-1-benzothiophen-3-yl)methyl]-1H-pyrazol-3-yl}carbonyl)pyrimidin-4-yl]amino}-2,3-dihydroxycyclopentyl]methyl sulfamate] | < 10 nM | 99%
13 | NS(=O)(=O)OC[C@H]1C[C@@H](Nc2ncncc2C(=O)c2ccn(CCc3cccc(Br)c3)c2)[C@@H](F)[C@@H]1O [Compound I-243, [(1R,2R,3R,4R)-4-{[5-({1-[2-(3-bromophenyl)ethyl]-1H-pyrrol-3-yl}carbonyl)pyrimidin-4-yl]amino}-3-fluoro-2-hydroxycyclopentyl]methyl sulfamate] | < 10 nM | 99%
14 | C#Cc1cccc(Cn2nc(C(=O)c3cncnc3N[C@@H]3C[C@H](COS(N)(=O)=O)[C@@H](O)C3)cc2C)c1 [Compound I-164, {(1R,2S,4R)-4-[(5-{[1-(3-ethynylbenzyl)-5-methyl-1H-pyrazol-3-yl]carbonyl}pyrimidin-4-yl)amino]-2-hydroxycyclopentyl}methyl sulfamate] | < 10 nM | > 99%
15 | NS(=O)(=O)OC[C@H]1C[C@@H](Nc2ncncc2C(=O)c2ccn(Cc3cccc(OC(F)F)c3)n2)[C@@H](F)[C@@H]1O [Compound I-303, [(1R,2R,3R,4R)-4-{[5-({1-[3-(difluoromethoxy)benzyl]-1H-pyrazol-3-yl}carbonyl)pyrimidin-4-yl]amino}-3-fluoro-2-hydroxycyclopentyl]methyl sulfamate] | < 10 nM | 99%
16 | NS(=O)(=O)OC[C@H]1C[C@@H](Nc2ncncc2C(=O)c2ccn(Cc3cccc(OC(F)F)c3)c2)[C@@H](F)[C@@H]1O [Compound I-224, [(1R,2R,3R,4R)-4-{[5-({1-[3-(difluoromethoxy)benzyl]-1H-pyrrol-3-yl}carbonyl)pyrimidin-4-yl]amino}-3-fluoro-2-hydroxycyclopentyl]methyl sulfamate] | < 10 nM | 99%
17 | NS(=O)(=O)OC[C@H]1C[C@@H](Nc2ncncc2C(=O)c2ccn(Cc3c(F)c(F)c(F)c(F)c3F)n2)[C@H](O)[C@@H]1O [Compound I-318, {(1R,2R,3S,4R)-2,3-dihydroxy-4-[(5-{[1-(pentafluorobenzyl)-1H-pyrazol-3-yl]carbonyl}pyrimidin-4-yl)amino]cyclopentyl}methyl sulfamate] | < 10 nM | 95%
18 | NS(=O)(=O)OC[C@H]1C[C@@H](Nc2ncncc2C(=O)c2ccn(Cc3cc4ccccc4s3)c2)[C@@H](F)[C@@H]1O [Compound I-322, {(1R,2R,3R,4R)-4-[(5-{[1-(1-benzothiophen-2-ylmethyl)-1H-pyrrol-3-yl]carbonyl}pyrimidin-4-yl)amino]-3-fluoro-2-hydroxycyclopentyl}methyl sulfamate] | < 10 nM | 99%
